Reference: patent US9511050B2, “Methods and compositions for treating cancer” (GEORGETOWN UNIVERSITY, priority 2013, dated 2016)
Where two headings read alike, the source gives them in different places.

Legend:
ES xenografts = assay: ES xenograft tumor regression in mice; type: in vivo; conditions: 400 mg/kg intraperitoneal, three days, 6 total doses, tumors 300 mm^3
Experimental: FIG. 13A: Mice with ES xenografts were treated with 400 mg/kg compound or controls as indicated. Starting well-established tumors (300 mm^3), mice were treated with intraperitoneal compound for three days, 6 total doses. FIG. 13B: H and E stained tumors from same experiment.
YK-4-279 upon xenograft GBM tumors is evaluated by treating animals seven days after tumor injection and those with symptomatic tumors. Early tumors are screened with Xenogen, and size correlated with MRI, and treatment started when animals 5 mm^3 lesions. YK-4-279 passes the blood-brain barrier. […] The study will measure brain tumor volumes, animal symptoms, and overall survival. At necropsy, tumors and normal adjacent brain will be evaluated by immunohistochemistry for GBM markers, apoptosis, and FLI1 regulated target genes. […] FIG. 13A: Mice with ES xenografts were treated with 400 mg/kg compound or controls as indicated. Starting well-established tumors (300 mm^3), mice were treated with intraperitoneal compound for three days, 6 total doses. FIG. 13B: H and E stained tumors from same experiment.

[1] = tested on: PANC1 (a human pancreatic carcinoma); assay: IC50 activity in PANC1 cells; type: cell-based
Experimental: (§1) Compounds provided in Table 2 were prepared using methods similar to those described herein. The structures and IC50 activities of particular compounds in PANC1 (a human pancreatic carcinoma), TC32 (human ESFT cell line), and TC71 (human ESFT cell line) cells are summarized in Table 2.

GBM cell lines = assay: Growth of GBM cell lines; type: cell-based; conditions: range over GBM cell lines
Description: Seven cell lines were selected with a spectrum of genetic abnormalities that occur in GBM. […] A panel of GBM cell lines were acquired that represent the heterogeneity of the disease.

Ewing Sarcoma xenograft = Ewing Sarcoma xenograft models; cited from earlier work
BSA = BSA (Bos taurus, UniProt P02769); assay: Surface plasmon resonance binding to non-specific protein BSA; conditions: SPR, read-out: affinity for BSA
Experimental: Steady state kinetics were measured on a Biacore T100 instrument, as previously described (Erkizan H V, Kong Y, Merchant M, Schlottmann S, Barber-Rotenberg J S, Yuan L, et al. A small molecule blocking oncogenic protein EWS-FLI1 interaction with RNA helicase A inhibits growth of Ewing's sarcoma. Nat Med. 2009 July; 15(7):750-6. PubMed PMID: 19584866. Eng; Barber-Rotenberg J S, Selvanath), SPR sensograms are not shown.

EWS-FLI1/RHA interaction = target: T1, EWS-FLI1/RHA interaction (Homo sapiens, UniProt Q01543+Q01844); assay: Immunoblot/co-precipitation of RHA and EWS-FLI1 from treated TC32 cells; type: cell-based; conditions: TC32 cell lysates
T1 construct: endogenous in cells; host or cells: TC32
T1 sequence (Q01844+Q01543 with tags, fused parts or gaps): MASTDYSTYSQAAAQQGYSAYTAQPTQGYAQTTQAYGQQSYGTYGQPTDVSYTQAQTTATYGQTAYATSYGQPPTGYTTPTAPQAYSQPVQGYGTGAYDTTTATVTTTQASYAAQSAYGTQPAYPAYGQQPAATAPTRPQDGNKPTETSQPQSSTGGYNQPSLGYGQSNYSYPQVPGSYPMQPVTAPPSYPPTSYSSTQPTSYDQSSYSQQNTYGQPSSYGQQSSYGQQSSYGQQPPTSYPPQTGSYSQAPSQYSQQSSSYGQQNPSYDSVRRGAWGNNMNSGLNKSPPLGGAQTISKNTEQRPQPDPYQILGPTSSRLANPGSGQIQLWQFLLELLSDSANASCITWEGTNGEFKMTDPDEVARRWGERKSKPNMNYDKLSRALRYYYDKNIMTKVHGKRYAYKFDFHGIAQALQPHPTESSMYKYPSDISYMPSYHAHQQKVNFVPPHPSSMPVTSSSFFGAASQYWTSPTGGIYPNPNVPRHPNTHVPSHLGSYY

ESFT cells = assay: Growth inhibition of ESFT cells; type: cell-based; conditions: ESFT cells growing in monolayer
Experimental: (§2) Growth inhibition of ESFT cells was measured for various concentrations of particular compounds.

[2] = tested on: TC32 (human ESFT cell line); assay: IC50 activity in TC32 cells; type: cell-based
Experimental: as §1

[3] = Rat pharmacokinetics, IV injection, observation; type: in vivo; conditions: rats, rapid injection; did not occur with slower infusion
Description: One of the significant challenges in getting novel targeted therapy into GBM is overcoming the blood-brain barrier (BBB).

[4] = tested on: TC71 (human ESFT cell line); assay: IC50 activity in TC71 cells; type: cell-based
Experimental: as §1, §2

EWS-FLI1 [5] = target: T2, EWS-FLI1 (Homo sapiens, UniProt Q01543); conditions: read-out: affinity (KD) for EWS-FLI1; cited from earlier work
T2 sequence (Q01543 220-452 limits assumed): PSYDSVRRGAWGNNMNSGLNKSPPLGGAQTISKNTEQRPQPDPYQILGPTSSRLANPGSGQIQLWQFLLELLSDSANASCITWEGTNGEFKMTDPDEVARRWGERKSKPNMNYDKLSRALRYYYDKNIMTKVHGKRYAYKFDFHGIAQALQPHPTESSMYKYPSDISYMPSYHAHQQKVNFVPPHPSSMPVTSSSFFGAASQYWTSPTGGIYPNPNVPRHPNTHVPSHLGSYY

EWS-FLI1 [6] = target: T3, EWS-FLI1 (Homo sapiens, UniProt Q01543+Q01844); conditions: enantiomer specificity; cited from earlier work
T3 sequence (Q01543 220-452 limits assumed): T2 sequence (Q01543 220-452 limits assumed)

[7] = Homo sapiens, PANC-1, PANC1 cells
[8] = Homo sapiens, TC-32, TC32 cells
[9] = Homo sapiens, TC-71, TC71 cells

Chain of BSA (P02769 25-607): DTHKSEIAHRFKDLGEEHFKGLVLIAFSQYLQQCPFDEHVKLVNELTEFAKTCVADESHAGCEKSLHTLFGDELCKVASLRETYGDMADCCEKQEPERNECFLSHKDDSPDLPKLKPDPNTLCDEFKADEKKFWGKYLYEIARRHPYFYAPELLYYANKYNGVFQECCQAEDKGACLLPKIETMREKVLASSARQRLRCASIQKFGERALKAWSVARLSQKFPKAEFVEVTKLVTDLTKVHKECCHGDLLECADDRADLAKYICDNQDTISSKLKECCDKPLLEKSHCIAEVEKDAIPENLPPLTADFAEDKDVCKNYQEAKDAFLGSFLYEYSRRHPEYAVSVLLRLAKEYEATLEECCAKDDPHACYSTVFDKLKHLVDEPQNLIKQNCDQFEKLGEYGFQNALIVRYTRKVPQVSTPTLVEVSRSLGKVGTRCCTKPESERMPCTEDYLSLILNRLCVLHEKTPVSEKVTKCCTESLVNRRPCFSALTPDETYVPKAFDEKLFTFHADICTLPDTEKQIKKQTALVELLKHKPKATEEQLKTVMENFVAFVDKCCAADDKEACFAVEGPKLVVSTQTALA

SMILES	IC50 [1, 7] [µM]	IC50 [2, 8] [µM]	IC50 [4, 9] [µM]	other results
COc1ccc(C(=O)C[C@@]2(O)C(=O)Nc3c(Cl)ccc(Cl)c32)cc1 [(S)-YK-4-279]				tumor response (ES xenografts): significant tumor regression; inhibition of functional activities of EWS-FLI1 (EWS-FLI1 [6]): able to inhibit the functional activities of EWS-FLI1
O=C(CC1(O)C(=O)Nc2c(Cl)ccc(Cl)c21)c1ccccc1 (centres unmarked) [YK-4-285]	≥ 40	≥ 40	≥ 40	
O=C(CC1(O)C(=O)Nc2c(Cl)ccc(Cl)c21)c1ccc(Cl)c(Cl)c1 (centres unmarked) [YK-4-287]	12.6	6.32	15.8	
O=C(CC1(O)C(=O)Nc2c(Cl)ccc(Cl)c21)c1ccc(Cl)c(Cl)c1Cl (centres unmarked) [YK-4-288]	≥ 40	3	9.35	

Second part, led by results:

IC50 [1, 7] [µM]	IC50 [2, 8] [µM]	IC50 [4, 9] [µM]	SMILES	other results
20	0.94	0.918	COc1ccc(C(=O)CC2(O)C(=O)Nc3c(Cl)ccc(Cl)c32)cc1 (racemic) [YK-4-279]	tumor response (ES xenografts): significant tumor regression; IC50 ([1]; PANC1 cells, read-out: IC50 PANC 1): 34 µM; IC50 (GBM cell lines): 0.5 to 9.9 µM; tumor growth (Ewing Sarcoma xenograft): reduced tumor growth; Kd (BSA): 122 µM; interaction of RHA with EWS-FLI1 (EWS-FLI1/RHA interaction; co-precipitation): did disrupt their interactions; level of EWS-FLI1 or RHA (EWS-FLI1/RHA interaction; immunoblot): did not directly affect the level of EWS-FLI1 or RHA; IC50 (ESFT cells): 0.9 µM; IC50 ([2]; TC32 cells): 0.766 µM; observation after IV injection [3]: rats became somnolent after rapid injection; IC50 ([4]; TC71 cells): 1.43 µM; Kd (EWS-FLI1 [5]): 9.5 µM
≥ 40	≥ 40	≥ 40	Nc1ccc(C(=O)CC2(O)C(=O)Nc3c(Cl)ccc(Cl)c32)cc1 (centres unmarked) [YK-4-284]	
≥ 40	4.63	9.15	O=C(CC1(O)C(=O)Nc2c(Cl)ccc(Cl)c21)c1ccc([N+](=O)[O-])cc1 (centres unmarked) [YK-4-286]	
≥ 40	≥ 40	≥ 40	O=C(CC1(O)C(=O)Nc2c(Cl)ccc(Cl)c21)c1ccc(O)cc1 (centres unmarked) [YK-4-289]	
